Experimental data: US5808100A, “Chromene compounds and photochromic materials” (Tokuyama Corporation, priority 1995, dated 1998)

How the values were obtained:
[1] = Photochromic properties of polymer (2 mm thick) containing the chromene compound, xenon lamp irradiation 120 seconds; format: physicochemical; set-up: key to Color density ε(120)-ε(0): absorbance at λmax after 120 s irradiation minus before, ε(120)-ε(0); details: for Color density ε(120)-ε(0): 120 seconds irradiation, 20° C.±1° C.; for Color density ε(120)-ε(0) / ε(0): absorbancy of the polymer not irradiated (initial color): at λmax; for Color fading rate t1/2: time until absorbancy decreases to one-half of [ε(120)-ε(0)]: after 120 seconds irradiation; for Maximum absorption wavelength λMax (developed color tone): polymer after developing color
Experimental: (§1) 0.05 Parts of the chromene compound obtained in Example 1 was added to 70 parts of a tetraethylene glycol dimethacrylate, 15 parts of a triethylene glycol dimethacrylate, 10 parts of a glycidyl methacrylate and 5 parts of a 2-hydroethyl methacrylate, and was mixed to a sufficient degree. The mixture solution was poured into a mold constituted by a glass plate and a gasket made from an ethylene/vinyl acetate copolymer and then polymerized. The polymerization was conducted by using an air furnace while gradually raising the temperature up to 30° C. to 90° C. over a period of 18 hours, the temperature being maintained at 90° C. for two hours. After the polymerization, the polymer was taken out from the glass mold.
The obtained polymer (2 mm thick) was irradiated with light from a xenon lamp L-2480 (300 W) SHL-100 manufactured by Hamamatsu Photonics Co. through an Aero Mass filter (manufactured by Corning Co.) for 120 seconds under the conditions of 20° C.±1° C., beam intensities of 365 nm=2.4 mW/cm^2 and […]=24 μW/cm^2 on the polymer surface to develop color and to measure photochromic properties. The photochromic properties were expressed as described below.
Maximum absorption wavelength (λmax): λmax of the polymer after it has developed color was found by using a spectrophotometer (instantaneous multi-channel photodetector MCPD1000) manufactured by Otsuka Denshi Kogyo Co.
ε(120): Absorbancy of the polymer using light of a maximum absorption wavelength after it was irradiated under the above-mentioned conditions for 120 seconds.
ε(0): Absorbancy of the polymer that has not been irradiated using light of a wavelength same as the maximum absorption wavelength of light with which the polymer was irradiated.
ε(120)-ε(0): Color density
(§2) Color fading rate [t1/2 ]: Time required by the polymer irradiated for 120 seconds until the absorbancy decreases down to one-half of [ε(120)-ε(0)]. Durability [T1/2 ]: Time required until the absorbency at the maximum absorption wavelength decreases down to 1/2 of the initial absorbency as measured by using a xenon fadometer FAC-25AX-HC manufactured by Suga Shikenki Co.
(§3) The photochromic polymers were obtained in the same manner as described above but using the compounds obtained in Examples 2 to 33 as chromene compounds. For the purpose of comparison, properties of the compounds represented by the following formulas (A), (B), (D) and (E) were also shown in Table 3. [drawing 110]

[2] = Durability T1/2 by xenon fadometer FAC-25AX-HC; format: physicochemical; details: in polymer
Experimental: as §1, §2, §3

SMILES | Color density ε(120)-ε(0) [1] | Color fading rate t1/2: time until absorbancy decreases to one-half of [ε(120)-ε(0)] [1] [min] | ε(0): absorbancy of the polymer not irradiated (initial color) [1] | Maximum absorption wavelength λMax (developed color tone) [1] [nm] | Durability T1/2: time until absorbancy at maximum absorption wavelength decreases to 1/2 of the initial [2] [h]
C1=CC(c2ccccc2)(c2ccccc2)Oc2ccc3ccccc3c21 [A, reference compound] | 0.52 | 0.667 | 0.04 | 436 | 460
COc1ccc2c3c(ccc2c1)OC(c1ccccc1)(c1ccccc1)C=C3 [B, reference compound] | 0.74 | 1.5 | 0.04 | 472 | 240
Fc1c(C2(c3cccs3)C=Cc3c(ccc4ccccc34)O2)ccc2ccccc12 (stereo not shown) [Compound 1] | 1.50 | 1.2 | 0.04 | 456 | 510
C1=CC(c2ccco2)(c2cccc3ccccc23)Oc2ccc3ccccc3c21 (stereo not shown) [Compound 3] | 1.49 | 1.38 | 0.08 | 496 | 480
C1=CC(c2ccc3ccccc3c2)(c2ccco2)Oc2ccc3ccccc3c21 (stereo not shown) [Compound 4] | 1.10 | 0.983 | 0.07 | 486 | 490
C1=CC(c2ccoc2)(c2ccco2)Oc2ccc3ccccc3c21 (stereo not shown) [Compound 5] | 1.11 | 0.833 | 0.07 | 466 | 540
C1=CC(c2ccsc2)(c2ccco2)Oc2ccc3ccccc3c21 (stereo not shown) [Compound 6] | 1.02 | 0.75 | 0.07 | 464 | 520
Fc1sccc1C1(c2ccc3ccccc3c2)C=Cc2c(ccc3ccccc23)O1 (stereo not shown) [Compound 7] | 1.30 | 1.03 | 0.05 | 456 | 500
Cn1cccc1C1(c2ccc3ccccc3c2)C=Cc2c(ccc3ccccc23)O1 (stereo not shown) [Compound 8] | 1.00 | 1 | 0.06 | 486 | 440
C1=CC(c2ccsc2)(c2cc3ccccc3o2)Oc2cc(N3CCCCC3)c3ccccc3c21 (stereo not shown) [Compound 10] | 1.33 | 1.37 | 0.10 | 460 | 510
COc1ccc2c3c(ccc2c1)OC(c1ccc2ccccc2c1)(c1cnco1)C=C3 (stereo not shown) [Compound 11] | 1.36 | 1.23 | 0.05 | 476 | 490
CCOc1c(C2(c3ccco3)C=Cc3c(ccc4cc(OC)c(C(C)=O)cc34)O2)ccc2ccccc12 (stereo not shown) [Compound 12] | 1.34 | 1.1 | 0.08 | 510 | 450
C1=CC(c2ncco2)(c2csc3ccccc23)Oc2ccc3cc(Cc4ccccc4)ccc3c21 (stereo not shown) [Compound 13] | 1.02 | 1.03 | 0.07 | 480 | 490
COc1ccc2ccc3c(c2c1)C=CC(c1ccco1)(c1coc2ccccc12)O3 (stereo not shown) [Compound 14] | 1.06 | 1 | 0.07 | 484 | 480
C1=CC(c2ccc3ccccc3c2)(c2nccs2)Oc2ccc3ccccc3c21 (stereo not shown) [Compound 16] | 1.09 | 0.7 | 0.06 | 466 | 485
COc1ccc2c3c(ccc2c1)OC(c1cccs1)(c1cccc2ccccc12)C=C3 (stereo not shown) [Compound 17] | 1.23 | 1.4 | 0.05 | 502 | 470
Fc1ccsc1C1(c2ccc3ccccc3c2)C=Cc2c(ccc3ccccc23)O1 (stereo not shown) [Compound 18] | 1.15 | 1.13 | 0.04 | 456 | 505
COc1ccc2c3c(ccc2c1)OC(c1cncs1)(c1cscc1C)C=C3 (stereo not shown) [Compound 19] | 1.46 | 1.25 | 0.06 | 490 | 450
CC(=O)Oc1ccc2c3c(ccc2c1)OC(c1ccc(C)s1)(c1cccc2ccccc12)C=C3 (stereo not shown) [Compound 20] | 1.42 | 1.48 | 0.05 | 506 | 480
CC(C)(C)Oc1ccc2ccc3c(c2c1)C=CC(c1cccs1)(c1ccc2ccccc2c1Cl)O3 (stereo not shown) [Compound 21] | 1.35 | 1.17 | 0.05 | 450 | 470
N#Cc1cc(Cl)c(C2(c3ccoc3)C=Cc3c(ccc4ccccc34)O2)s1 (stereo not shown) [Compound 24] | 1.12 | 1.08 | 0.05 | 458 | 480
C1=CC(c2ccco2)(c2cc3ccccc3o2)Oc2ccc3ccccc3c21 (stereo not shown) [Compound 25] | 1.23 | 0.983 | 0.06 | 492 | 540
C1=CC(c2ccco2)(c2csc3ccccc23)Oc2ccc3ccccc3c21 (stereo not shown) [Compound 26] | 1.05 | 0.833 | 0.06 | 460 | 510
